Paper PMC9136103 (The Journal of Biological Chemistry, 2022)
Each block holds one compound with its values, some of them ahead of it.

Columns and labels:
[1] = molecular target: T1, human ornithine aminotransferase (hOAT) (Homo sapiens, UniProt P04181); assay: stopped-flow transient-state kinetics, purified enzyme; type: biochemical; details: read-out: Dissociation constant (Kd)
T1 construct: gene OAT; t-hOAT expressed as MBP fusion, MBP tag removed
T1 sequence (P04181 26-439 limits assumed): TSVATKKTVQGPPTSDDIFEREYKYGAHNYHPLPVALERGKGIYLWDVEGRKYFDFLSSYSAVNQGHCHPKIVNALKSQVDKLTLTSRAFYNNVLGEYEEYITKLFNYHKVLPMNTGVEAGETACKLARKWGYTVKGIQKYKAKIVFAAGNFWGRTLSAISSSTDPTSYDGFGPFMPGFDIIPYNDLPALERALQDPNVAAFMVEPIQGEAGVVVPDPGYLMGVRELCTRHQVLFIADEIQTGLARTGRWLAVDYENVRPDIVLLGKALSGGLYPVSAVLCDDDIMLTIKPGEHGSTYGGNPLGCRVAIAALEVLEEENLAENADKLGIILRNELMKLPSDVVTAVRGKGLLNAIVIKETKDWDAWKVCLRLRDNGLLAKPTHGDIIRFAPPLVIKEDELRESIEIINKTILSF

[2] = molecular target: T1, human ornithine aminotransferase (hOAT); assay: crystal structure by soaking (~[…] Å); UV-Vis titration Kd; type: binding
[3] = molecular target: T1, human ornithine aminotransferase (hOAT); assay: crystal structure by soaking (~[…] Å); stopped-flow kinetics Kd; type: biochemical
[4] = molecular target: T1, human ornithine aminotransferase (hOAT); assay: stopped-flow transient-state kinetics, purified enzyme (Kd not determined); type: biochemical

- Kd [1]: 4700 ± 290 µM
SMILES: NCCC[C@H](N)C(=O)O [L-Orn, L-ornithine]

- Kd [2]: 110 ± 15 µM
SMILES: NCCCC(=O)O [GABA, γ-aminobutyric acid]

- Kd [3]: 735 ± 78 µM
SMILES: NCCCCC(=O)O [AVA, 5-aminovaleric acid]

SMILES: NCC[C@H](N)C(=O)O [DABA, L-2,4-diaminobutyric acid]
- klim/Kd [4]: 0.249 ± 0.006 M⁻¹ s⁻¹
